“And” between values parts separate entries of the source, which are not always exact repeats. Equal entries are not always repeated. The source made the active and inactive calls. How the calls were made is not given here.
target: Intestinal-type alkaline phosphatase (Homo sapiens) (UniProt P09923); experiment: human IAP activators, SAR follow-up, mouse IAP activator project, biochemical, human enzyme for mouse series (AID 493145); conditions: purified human intestinal alkaline phosphatase, enzymatic activity
Sequence (P09923 whole entry, looked up): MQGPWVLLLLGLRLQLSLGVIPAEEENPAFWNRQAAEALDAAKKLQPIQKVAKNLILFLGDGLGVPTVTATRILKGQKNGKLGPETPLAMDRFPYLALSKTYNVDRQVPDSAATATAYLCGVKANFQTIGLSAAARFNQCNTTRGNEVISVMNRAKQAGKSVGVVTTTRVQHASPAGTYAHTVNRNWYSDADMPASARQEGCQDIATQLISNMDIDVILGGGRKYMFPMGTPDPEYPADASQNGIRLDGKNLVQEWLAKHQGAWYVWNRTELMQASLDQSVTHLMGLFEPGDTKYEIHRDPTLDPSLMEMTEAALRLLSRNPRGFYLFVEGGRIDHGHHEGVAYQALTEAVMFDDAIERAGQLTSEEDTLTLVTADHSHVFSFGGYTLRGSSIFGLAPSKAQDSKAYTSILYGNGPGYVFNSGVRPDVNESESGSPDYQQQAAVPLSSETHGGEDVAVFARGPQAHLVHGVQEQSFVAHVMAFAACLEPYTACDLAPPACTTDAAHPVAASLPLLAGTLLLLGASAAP

EC50, inactive:
COc1ccc(NC(=O)CCNS(=O)(=O)c2ccc3[nH]c(=O)oc3c2)cc1Cl > 100 µM
CCOc1ccccc1NC(=O)CCNS(=O)(=O)c1ccc2[nH]c(=O)oc2c1 > 100 µM
O=S(=O)(Nc1ncccn1)c1ccc(NC(=S)NCCC(c2ccccc2)c2ccccc2)cc1 > 100 µM
Cc1ccc(NC(=O)CCNS(=O)(=O)c2ccc3[nH]c(=O)oc3c2)c(C)c1 > 100 µM
COc1ccccc1NC(=O)CSc1sc2c(O)cc(=O)[nH]c2c1C#N > 100 µM
CCOc1ccc2nc(NC(=O)CN(C)S(=O)(=O)c3ccc4[nH]c(=O)oc4c3)sc2c1 > 100 µM
O=C(N/N=C/c1ccsc1)c1cc(O)c(O)c(O)c1 > 100 µM
COc1ccc(OC)c(NC(=O)CCNS(=O)(=O)c2ccc3[nH]c(=O)oc3c2)c1 > 100 µM
COc1ccc(N2CCN(C(=O)CN3C(=O)/C(=C\c4ccco4)SC3=S)CC2)cc1 > 100 µM
N#Cc1c(SCC(=O)Nc2nccs2)sc2c(O)cc(=O)[nH]c12 > 100 µM
COc1ccc(NC(=O)C(CC(C)C)NS(=O)(=O)c2ccc3[nH]c(=O)oc3c2)cc1 (stereo not drawn) > 100 µM
CN(C(=O)CN1C(=O)/C(=C\c2ccco2)SC1=S)C1CCS(=O)(=O)C1 (stereo not drawn) > 100 µM
COc1ccc(OC)c(NC(=O)CSc2sc3c(O)cc(=O)[nH]c3c2C#N)c1 > 100 µM
CC(C(=O)NCCc1ccc(O)cc1)N1C(=O)/C(=C/c2ccco2)SC1=S (stereo not drawn) > 100 µM
O=C(CN1C(=O)/C(=C/c2ccco2)SC1=S)NCCc1ccc(O)cc1 > 100 µM
CCOC(=O)N1CCN(S(=O)(=O)c2ccc3[nH]c(=O)oc3c2)CC1 > 100 µM
N#Cc1c(SCC(=O)NCc2ccc3c(c2)OCO3)sc2c(O)cc(=O)[nH]c12 > 100 µM
CCOc1ccccc1CNC(=O)CCNS(=O)(=O)c1ccc2[nH]c(=O)oc2c1 > 100 µM
COC(=O)c1ccc(C)c(NC(=O)CSc2sc3c(O)cc(=O)[nH]c3c2C#N)c1 > 100 µM
N#Cc1c(SCC(=O)Nc2ccc(C(F)(F)F)cc2)sc2c(O)cc(=O)[nH]c12 > 100 µM
CC(C(=O)Nc1cccc(C(=O)O)c1)N1C(=O)/C(=C\c2ccco2)SC1=S (stereo not drawn) > 100 µM
CCc1nnc(NC(=O)CSc2sc3c(O)cc(=O)[nH]c3c2C#N)s1 > 100 µM
O=C(NNC(=O)c1cc(O)c(O)c(O)c1)NC1CCCCC1 > 100 µM
COc1cccc(NC(=O)CN(C)S(=O)(=O)c2ccc3[nH]c(=O)oc3c2)c1 > 100 µM
COc1ccc(Cl)cc1NC(=O)CSc1sc2c(O)cc(=O)[nH]c2c1C#N > 100 µM
CC(C(=O)NCCc1ccc(O)c(O)c1)N1C(=O)/C(=C\c2ccco2)SC1=S (stereo not drawn) > 100 µM
Cc1ccc(NC(=O)CCNS(=O)(=O)c2ccc3[nH]c(=O)oc3c2)cc1 > 100 µM
O=C(CN1C(=O)/C(=C/c2ccco2)SC1=S)Nc1ccc(O)c(C(=O)O)c1 > 100 µM
CCSc1nnc(NC(=O)CSc2sc3c(O)cc(=O)[nH]c3c2C#N)s1 > 100 µM
N#Cc1cccc(NC(=O)CCNS(=O)(=O)c2ccc3[nH]c(=O)oc3c2)c1 > 100 µM
CCOC(=O)NC(=O)CSc1sc2c(O)cc(=O)[nH]c2c1C#N > 100 µM
COc1ccc(NC(=O)CSc2sc3c(O)cc(=O)[nH]c3c2C#N)c(OC)c1 > 100 µM
CC(C)C(C(=O)NC1CCS(=O)(=O)C1)N1C(=O)/C(=C\c2ccco2)SC1=S (stereo not drawn) > 100 µM
COc1ccc(CNC(=O)CSc2sc3c(O)cc(=O)[nH]c3c2C#N)cc1 > 100 µM
Cc1ccc(Cl)cc1NC(=O)CSc1sc2c(O)cc(=O)[nH]c2c1C#N > 100 µM
O=C(CN1C(=O)/C(=C/c2ccco2)SC1=S)Nc1ccc2nccnc2c1 > 100 µM
O=C(c1ccco1)N1CCN(S(=O)(=O)c2ccc3[nH]c(=O)oc3c2)CC1 > 100 µM
N#Cc1c(SCC(=O)Nc2nc3ccccc3s2)sc2c(O)cc(=O)[nH]c12 > 100 µM
Cc1ccc(NC(=O)CCNS(=O)(=O)c2ccc3[nH]c(=O)oc3c2)cc1F > 100 µM
Cc1cc(=O)oc2cc(NC(=S)NCCC(c3ccccc3)c3ccccc3)ccc12 > 100 µM
COc1cccc(CNC(=O)CCNS(=O)(=O)c2ccc3[nH]c(=O)oc3c2)c1 > 100 µM
COc1ccc(CNC(=O)CSc2sc3c(O)cc(=O)[nH]c3c2C#N)cc1OC > 100 µM
COc1cc(Cl)c(C)cc1NC(=O)CSc1sc2c(O)cc(=O)[nH]c2c1C#N > 100 µM
O=C(CN1C(=O)/C(=C\c2ccco2)SC1=S)Nc1ccc(C(=O)O)cc1 > 100 µM
COC(=O)NNC(=O)c1cc(OC)c(OC)c(OC)c1 > 100 µM
O=C(N/N=C/C1CC=CCC1)c1cc(O)c(O)c(O)c1 (stereo not drawn) > 100 µM
O=C(C1CCN(S(=O)(=O)c2ccc3[nH]c(=O)oc3c2)CC1)N1CC=C(c2ccccc2)CC1 > 100 µM
O=C(CCN1C(=O)/C(=C/c2ccco2)SC1=S)Nc1ccc(C(=O)O)c(O)c1 > 100 µM
O=C(O)CC(C(=O)O)N1C(=O)/C(=C/c2ccc(-c3nc4ccccc4s3)o2)SC1=S (stereo not drawn) > 100 µM
COc1ccccc1CNC(=O)CCNS(=O)(=O)c1ccc2[nH]c(=O)oc2c1 > 100 µM
Cc1ccc(NC(=O)CSc2sc3c(O)cc(=O)[nH]c3c2C#N)c(F)c1 > 100 µM
CC(C(=O)Nc1ccccc1C(=O)O)N1C(=O)/C(=C\c2ccco2)SC1=S (stereo not drawn) > 100 µM
Cc1ccc(C)c(NC(=O)CCNS(=O)(=O)c2ccc3[nH]c(=O)oc3c2)c1 > 100 µM
Cc1ccc(/C=N/NC(=O)c2cc(O)c(O)c(O)c2)cc1 > 100 µM
CCOC(=O)N1CCC(NC(=O)CSc2sc3c(O)cc(=O)[nH]c3c2C#N)CC1 > 100 µM
O=C(CCCN1C(=O)/C(=C\c2ccco2)SC1=S)Nc1ccc(O)cc1C(=O)O > 100 µM
Cc1ccc(NC(=O)CCNS(=O)(=O)c2ccc3[nH]c(=O)oc3c2)cc1N(C)C > 100 µM
CC(C)c1ccc(NC(=O)CCNS(=O)(=O)c2ccc3[nH]c(=O)oc3c2)cc1 > 100 µM
O=C(CN1C(=O)/C(=C\c2ccco2)SC1=S)Nc1ccc(O)cc1C(=O)O > 100 µM
Cc1cc(NC(=O)CSc2sc3c(O)cc(=O)[nH]c3c2C#N)ccc1Br > 100 µM
O=[N+]([O-])c1ccc(NC(=S)NCCC(c2ccccc2)c2ccccc2)cc1 > 100 µM
CC(C(=O)N(C)C1CCS(=O)(=O)C1)N1C(=O)/C(=C/c2ccco2)SC1=S (stereo not drawn) > 100 µM
O=C(CN1C(=O)/C(=C/c2ccco2)SC1=S)N[C@@H]1CSC[C@@H]1O > 100 µM
O=C(N/N=C/c1ccccc1F)c1cc(O)c(O)c(O)c1 > 100 µM
CCCSc1nnc(NC(=O)CSc2sc3c(O)cc(=O)[nH]c3c2C#N)s1 > 100 µM
N#Cc1cccc(NC(=O)CSc2sc3c(O)cc(=O)[nH]c3c2C#N)c1 > 100 µM
O=C(CCNS(=O)(=O)c1ccc2[nH]c(=O)oc2c1)Nc1cccc(-c2ccno2)c1 > 100 µM
O=C(CN1C(=O)/C(=C/c2ccco2)SC1=S)Nc1ccc(C(=O)O)cc1 > 100 µM
COc1cc(C(=O)NNC(=O)C2CC2)cc(OC)c1OC > 100 µM
C/C(=N\NC(=O)c1cc(O)c(O)c(O)c1)c1ccncc1 > 100 µM

EC50, > 100 µM (inactive) and 66.6 µM:
CC(C)N1CCC(=NNC(=O)c2cc(O)c(O)c(O)c2)CC1

EC50, active:
FC(F)(F)c1cccc(NC(=S)NCCC(c2ccccc2)c2ccccc2)c1 66.4 µM
COc1cc(C(=O)NNc2nc3cc4c(cc3s2)OCO4)cc(OC)c1OC 13.5 µM
CCN(C(=O)CN1C(=O)/C(=C\c2ccco2)SC1=S)C1CCS(=O)(=O)C1 (stereo not drawn) 42.6 µM
COc1cc(C(=O)NNC(=S)NC(=O)c2ccc(Cl)cc2)cc(OC)c1OC 19.1 µM
S=C(NCCC(c1ccccc1)c1ccccc1)Nc1ccc(Cl)cc1Cl 45.1 µM
COc1ccc(NC(=S)NCCC(c2ccccc2)c2ccccc2)cc1 52.3 µM
O=C1/C(=C/c2ccco2)SC(=S)N1C1CCS(=O)(=O)C1 (stereo not drawn) 42.6 µM

From PubChem BioAssay AID493145 (Sanford-Burnham Center for Chemical Genomics, 2011)
